Assay results published in patent US11890291B2, “Aqueous composition with water insoluble vitamins” (Innova Agri Bio Park Private Limited, priority 2018, dated 2024).

Legend:
[1] = in vivo; conditions: Wistar, rat, po, 5 mg/kg
Procedure: Test substance (Vitamin D3 fortified aqueous composition) and standard drug cholecalciferol (Vitamin D3) was administered by oral route at the dose of 5 mg/kg body weight to Rats as shown in Table 8.
After oral administration of the test substance and the standard drug, 500 μL of blood sample was collected in EDTA containing tubes at different time intervals of 0, ½, 1, 2, 4, 8, 12, 24 and 48 hours.
The plasma was separated from blood samples for bioanalysis and pharmacokinetic profiling was performed using LC-MS/MS method for the quantification of vitamin D3 in Rat plasma.
The area under the plasma drug concentration-time curve (AUC) was calculated which reflects the actual body exposure to drug after administration of a dose of the drug.

[2] = Volume of distribution test; assay type: in vivo, Wistar rats; conditions: oral 5 mg/kg
Procedure: The volume of distribution (Vd) test was done to check the ability of Vitamin D3 nanogels/nanoparticles to distribute through different body fluid compartments. Apparent volume of distribution (Vd) was calculated by dividing the amount of the nanogel/nanoparticles and the standard drug administered on the plasma concentration as shown in Table 11.

C=C1CC[C@H](O)C/C1=C/C=C1\CCC[C@]2(C)[C@@H]([C@H](C)CCCC(C)C)CC[C@@H]12 [Standard vitamin D3, cholecalciferol]
AUC at 0 h [1]: 20 ng·h/mL
AUC at 0.5 h [1]: 43.3 ng·h/mL
AUC at 1 h [1]: 41.7 ng·h/mL
AUC at 2 h [1]: 106 ng·h/mL
AUC at 4 h [1]: 289 ng·h/mL
AUC at 8 h [1]: 1180 ng·h/mL
AUC at 12 h [1]: 3010 ng·h/mL
AUC at 24 h [1]: 4060 ng·h/mL
AUC at 48 h [1]: 2910 ng·h/mL
AUC(0-t) [1]: 11700 ng·h/mL
concentration at 0 h [1]: 1.66 ± 1.66 ng/mL
concentration at 0.5 h [1]: 4.16 ± 2.17 ng/mL
concentration at 1 h [1]: 3.7 ± 1.98 ng/mL
concentration at 2 h [1]: 13.4 ± 4.87 ng/mL
concentration at 4 h [1]: 68.8 ± 22.5 ng/mL
concentration at 8 h [1]: 284 ± 82 ng/mL
concentration at 12 h [1]: 767 ± 92.5 ng/mL
concentration at 24 h [1]: 1040 ± 123 ng/mL
concentration at 48 h [1]: 744 ± 33.6 ng/mL
Volume of distribution (Vd) ([2]; 0 Hr): 333.3 ± 333.3 L/kg
Volume of distribution (Vd) ([2]; 0.5 Hr): 548.8 ± 285.8 L/kg
Volume of distribution (Vd) ([2]; 1 Hr): 632.7 ± 339.6 L/kg
Volume of distribution (Vd) ([2]; 2 Hr): 465.9 ± 129.3 L/kg
Volume of distribution (Vd) ([2]; 4 Hr): 96.22 ± 25.47 L/kg
Volume of distribution (Vd) ([2]; 8 Hr): 20.25 ± 4.58 L/kg
Volume of distribution (Vd) ([2]; 12 Hr): 6.73 ± 0.89 L/kg
Volume of distribution (Vd) ([2]; 24 Hr): 4.98 ± 0.67 L/kg
Volume of distribution (Vd) ([2]; 48 Hr): 6.74 ± 0.31 L/kg
